Source: publication PMC8855072, “Trypanosoma cruzi Mitochondrial Peroxiredoxin Promotes Infectivity in Macrophages and Attenuates Nifurtimox Toxicity” (Frontiers in Cellular and Infection Microbiology, 2022)

Key:
[1] = molecular target: T1, recombinant MPX (rMPX), mitochondrial peroxiredoxin (Trypanosoma cruzi, UniProt O79469); experiment: inhibition of peroxynitrite decomposition (CBA oxidation, fluorescence); SDS-PAGE of non-reducible adducts; assay type: biochemical; settings: covalent; 100 µM CA, 1 h with pre-reduced MPX (5 µM), excess removed; SIN-1 as peroxynitrite source; holdase activity not inhibited
T1 construct: His-tagged, expressed in E. coli BL21, nickel column; pre-reduced with DTT, DTT removed
T1 sequence (O79469 entry or part of it): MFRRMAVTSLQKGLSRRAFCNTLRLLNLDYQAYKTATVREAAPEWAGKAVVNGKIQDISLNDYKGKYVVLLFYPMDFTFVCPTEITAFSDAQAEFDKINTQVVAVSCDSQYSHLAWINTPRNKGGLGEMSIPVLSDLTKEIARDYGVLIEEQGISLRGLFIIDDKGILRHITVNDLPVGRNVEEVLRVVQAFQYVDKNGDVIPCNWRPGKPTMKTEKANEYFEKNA

[2] = molecular target: T1, recombinant MPX (rMPX), mitochondrial peroxiredoxin; experiment: competition with peroxynitrite-dependent CBA oxidation (fluorescence); assay type: biochemical; settings: mere turnover; pre-reduced MPX 5 µM, peroxynitrite flux ~3 µM/min from SIN-1, CBA 50 µM

SMILES	inhibition of peroxynitrite decomposition (CBA oxidation, fluorescence); SDS-PAG [1]	competition with peroxynitrite-dependent CBA oxidation (fluorescence) [2]
[O-][n+]1c(CBr)c(CBr)[n+]([O-])c2ccccc21 [conoidin A]	CA reacts and crosslinks recombinant MPX	–
O=NOO [peroxynitrite]	–	The decomposition of peroxynitrite by MPX reduces the oxidant generation of coumarin
